What was measured:
MCL-1ΔNΔC [1] = experiment: High-throughput competitive FP binding screen, FITC-MCL-1 SAHB/MCL-1ΔNΔC interaction; conditions: selectivity for MCL-1ΔNΔC over BCL-XLΔC targeting (BCL-XL % Bound minus MCL-1 % Bound)
BCL-XLΔC = BCL-XLΔC (Homo sapiens, UniProt Q07817); experiment: High-throughput competitive FP binding screen, FITC-BAD BH3/BCL-XLΔC interaction; conditions: FITC-BAD BH3/BCL-XLΔC interaction pair, competitive FP screen
MCL-1ΔNΔC [2] = biological target: MCL-1ΔNΔC (Homo sapiens, UniProt Q07820); experiment: High-throughput competitive FP binding screen, FITC-MCL-1 SAHB/MCL-1ΔNΔC interaction; parameters: the C-terminal alpha-helix was deleted from each of these constructs; GST (N, cleaved yes); made in house; conditions: FITC-MCL-1 SAHB/MCL-1ΔNΔC interaction pair, competitive FP screen
Chain of MCL-1ΔNΔC (Homo sapiens, UniProt Q07820) (Q07820 172-320 limits assumed, stated change not applied): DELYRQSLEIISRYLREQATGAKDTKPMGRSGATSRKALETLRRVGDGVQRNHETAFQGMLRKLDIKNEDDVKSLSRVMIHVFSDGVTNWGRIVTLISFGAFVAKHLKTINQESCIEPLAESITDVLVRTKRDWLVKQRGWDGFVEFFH

Chain of BCL-XLΔC (Q07817 1-212 limits assumed, stated change not applied): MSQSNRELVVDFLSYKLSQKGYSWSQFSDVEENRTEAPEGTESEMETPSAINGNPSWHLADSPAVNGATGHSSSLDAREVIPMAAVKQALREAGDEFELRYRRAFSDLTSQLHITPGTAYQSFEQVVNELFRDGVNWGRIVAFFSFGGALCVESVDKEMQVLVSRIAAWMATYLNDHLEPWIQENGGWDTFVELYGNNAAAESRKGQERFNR

SMILES | Spec Values (MCL-1ΔNΔC [1]) | BCL-XL % Bound (BCL-XLΔC) | MCL-1% Bound (MCL-1ΔNΔC [2])
Cc1conc1NC(c1cccs1)c1ccc2cccnc2c1O (stereo not drawn) | 45.42 | 103.8% | 58.33%
Cc1ccc2c(CC(=O)NCC(=O)OCc3ccccc3)coc2c1 | 59.09 | 95.64% | 36.55%
Cc1ccccc1-c1nnc(SCC(=O)NC(=O)Nc2ccccc2F)n1C | 58.58 | 98.1% | 39.52%
O=C1C2=C(C(=O)c3ccccc31)C(c1ccccc1O)c1sc(=O)[nH]c1S2 (stereo not drawn) | 58.45 | 88.86% | 30.41%
CN1CCCN(Cc2cc(C(C)(C)C)c(O)c(C(C)(C)C)c2)CC1 | 58.29 | 83.5% | 25.21%
O=C(CC1C(=O)c2ccccc2S1(=O)=O)NC1=NN(c2ccccc2)C(=O)C1 (stereo not drawn) | 57.74 | 65.35% | 7.61%
c1coc(C2Nc3cccc4cccc(c34)N2)c1 | 57.32 | 106.3% | 48.94%
CC(C)Cn1c2ccc(Cl)cc2c2nc3ccccc3nc21 | 57.12 | 89.44% | 32.32%
c1cc(CNc2ccc(N3CCCC3)cc2)ccn1 | 56.89 | 95.63% | 38.73%
Oc1ccc(NCc2ccc(Br)cc2)cc1 | 56.32 | 90.95% | 34.63%
CCN(CC)S(=O)(=O)c1ccc(-c2ccc(/C=N/N=C3\NC(=O)C(CC(=O)Nc4ccccc4)S3)o2)cc1 (stereo not drawn) | 56.3 | 100.7% | 44.37%
O=C1CSCC(=O)N1c1cc(C(F)(F)F)cc(C(F)(F)F)c1 | 56.05 | 101.7% | 45.62%
O=C1C=CC(=O)C(Sc2nnnn2-c2ccccc2)=C1 | 55.69 | 101.3% | 45.56%
O=C(CSc1ncc(C(F)(F)F)cc1Cl)NC(=O)CN1CCCC1=O | 55.6 | 98.97% | 43.37%
N#CC(C#N)=C(C#N)c1ccc(-c2ccccc2)[nH]1 | 55.59 | 90.7% | 35.11%
c1ccc2c(c1)nc(Nc1ccc(N3CCCCC3)cc1)c1nncn12 | 55.41 | 90.45% | 35.03%

SMILES | Spec Values (MCL-1ΔNΔC [1]) | BCL-XL % Bound (BCL-XLΔC) | MCL-1% Bound (MCL-1ΔNΔC [2])
C/C(=N\OCc1ccc(C(=O)N2CCCCC2)o1)c1cccc(C(F)(F)F)c1 | 55.34 | 110.8% | 55.48%
CCOc1ccc2c(c1)C(C)=CC(C)(C)N2C(=O)CSc1nnc(C2CC2)n1C | 55.24 | 95.37% | 40.13%
CCc1ccc2c(c1)C1(NN=C(c3ccccc3)S1)C(=O)N2 (stereo not drawn) | 55.23 | 99.43% | 44.19%
Cc1ccc(C)n1Cc1ccc(C(=O)O)cc1 | 54.85 | 91.45% | 36.6%
CC(C)CNC(=O)CCc1nc(-c2ccccc2)no1 | 54.73 | 92.21% | 37.48%
N#Cc1cc2c([nH]c1=S)CCC2 | 54.04 | 86.64% | 32.6%
CN(C)c1ccc2cccc(O)c2n1 | 53.86 | 95.09% | 41.22%
CCOc1cccc(/C=N/n2c(S)nnc2-c2ccc(Cl)cc2)c1O | 53.75 | 96.58% | 42.83%
CCCCCOc1ccc(C(=O)/C=C/C(=O)O)cc1 | 53.61 | 97.46% | 43.85%
CC1CCC[SH](c2cc(O)ccc2O)C1 (stereo not drawn) | 53.57 | 94.72% | 41.16%
O=c1c(O)cccc2cc(O)c(O)c(O)c12 | 53.55 | 33.74% | −19.81%
CC(/N=C/c1cccc(O)c1O)c1ccccc1 (stereo not drawn) | 53.29 | 93.71% | 40.42%
O=C(CSc1nnc(-c2ccoc2)c(-c2ccoc2)n1)c1ccc(-c2ccccc2)cc1 | 53.14 | 98.52% | 45.38%
Oc1ccc(CNc2ccccc2O)cc1 | 53.12 | 89.38% | 36.26%
C/C(=N\NC(=S)Nc1ccccc1C)c1ccc(O)cc1 | 52.6 | 103.4% | 50.82%

The remaining lines, values ahead:

Spec Values (MCL-1ΔNΔC [1]) | BCL-XL % Bound (BCL-XLΔC) | MCL-1% Bound (MCL-1ΔNΔC [2]) | SMILES
59.04 | 100.8% | 41.79% | Cc1ccc(C(c2c(O)ccc3ccccc23)N2CCOCC2)o1 (stereo not drawn)
59.02 | 93.69% | 34.67% | O=c1[nH]cnc2ccc(Br)cc12
58.85 | 77.59% | 18.74% | Cc1ccc(/C=C2\C(=O)Nc3ccc(Br)cc32)o1
58.66 | 81.48% | 22.81% | COc1cc(C2Nc3cccc4cccc(c34)N2)cc(I)c1O
58.52 | 97.64% | 39.12% | O=C1COc2ccc(-c3cs/c(=N\c4ccc(F)cc4)n3/N=C/c3ccc(O)c(O)c3)cc2N1
56.64 | 92.03% | 35.4% | COc1ccc(C2=CC(=O)C=CC2=O)cc1
55.93 | 97.07% | 41.14% | O=C1C=CC(=O)N1CCc1ccc(Cl)cc1
55.72 | 63.54% | 7.822% | N#C/C(=C\C=C\c1ccco1)C(N)=S
55.6 | 99.37% | 43.77% | Cc1ccc2n1CCn1cc(-c3ccc(Br)cc3)cc1-2
55 | 82.27% | 27.28% | Cc1cccc(NC(=O)CSc2nncc(=O)[nH]2)c1
54.35 | 99.56% | 45.2% | Fc1ccccc1OCCSc1nnc2c(n1)[nH]c1ccccc12
53.98 | 82.02% | 28.04% | O=C(O)C1CCCN(c2nn3cc(-c4ccc(F)cc4)nc3s2)C1 (stereo not drawn)
53.55 | 93.3% | 39.75% | Cc1nc2sccn2c1-c1nc(-c2ccc(Br)o2)c(C(=O)c2ccc3c(c2)OCCO3)s1
53.23 | 103.6% | 50.39% | N#CSC(C#N)Cc1ccccc1 (stereo not drawn)
52.96 | 83.67% | 30.71% | CCCOc1nc2c(c(-c3ccco3)c1C#N)CCCC2
52.91 | 108.5% | 55.57% | NC1=C(c2nc3ccccc3s2)CC(=O)N1CCc1ccccc1
52.3 | 122.3% | 69.99% | C=CCSc1nnc(-c2ccc(C(C)(C)C)cc2)n1Cc1ccco1
52.28 | 77.55% | 25.26% | COC(=O)c1c(NC(=S)Nn2cnnc2)sc2c1CCC(C)C2 (stereo not drawn)
52.25 | 99.25% | 47.01% | O=C(/C=C/c1ccco1)NC(=S)Nc1ccccc1C(F)(F)F

Source: patent US20150315211A1, “SMALL MOLECULES FOR THE MODULATION OF MCL-1 AND METHODS OF MODULATING CELL DEATH, CELL DIVISION, CELL DIFFERENTIATION AND METHODS OF TREATING DISORDERS” (priority 2010, published 2015)
